# Test results reported in patent US20050282818A1, “Ubiquitin ligase inhibitors” (Rigel Pharmaceuticals, Inc., priority 2004, published 2005).
# Molecular target: APC11/APC2 (Homo sapiens, UniProt Q9NYG5+Q9UJX6)
# Test: APC-11/APC-2 ligase assay (APC auto ubiquitination)
# Type: biochemical
# Settings: APC assay
# Procedure, shortened: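 His-tagged APC was captured on nickel plates with human E1 (5 ng/well), UbcH5c (20 ng/well), APC (100 ng/well) and Flag-ubiquitin (100 ng/well) in a Tris pH 7.6 reaction buffer containing 2.5 mM ATP, for 1 hour at room temperature. Read-out was anti-Flag/HRP chemiluminescence. IC50 was set against a DMSO control, typically from 6 or 8 concentrations.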
# Sequence of APC11/APC2 (Q9NYG5 whole entry): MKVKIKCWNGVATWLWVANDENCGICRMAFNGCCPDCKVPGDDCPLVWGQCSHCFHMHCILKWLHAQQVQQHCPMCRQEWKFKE
# Sequence of APC11/APC2 (Q9UJX6 whole entry): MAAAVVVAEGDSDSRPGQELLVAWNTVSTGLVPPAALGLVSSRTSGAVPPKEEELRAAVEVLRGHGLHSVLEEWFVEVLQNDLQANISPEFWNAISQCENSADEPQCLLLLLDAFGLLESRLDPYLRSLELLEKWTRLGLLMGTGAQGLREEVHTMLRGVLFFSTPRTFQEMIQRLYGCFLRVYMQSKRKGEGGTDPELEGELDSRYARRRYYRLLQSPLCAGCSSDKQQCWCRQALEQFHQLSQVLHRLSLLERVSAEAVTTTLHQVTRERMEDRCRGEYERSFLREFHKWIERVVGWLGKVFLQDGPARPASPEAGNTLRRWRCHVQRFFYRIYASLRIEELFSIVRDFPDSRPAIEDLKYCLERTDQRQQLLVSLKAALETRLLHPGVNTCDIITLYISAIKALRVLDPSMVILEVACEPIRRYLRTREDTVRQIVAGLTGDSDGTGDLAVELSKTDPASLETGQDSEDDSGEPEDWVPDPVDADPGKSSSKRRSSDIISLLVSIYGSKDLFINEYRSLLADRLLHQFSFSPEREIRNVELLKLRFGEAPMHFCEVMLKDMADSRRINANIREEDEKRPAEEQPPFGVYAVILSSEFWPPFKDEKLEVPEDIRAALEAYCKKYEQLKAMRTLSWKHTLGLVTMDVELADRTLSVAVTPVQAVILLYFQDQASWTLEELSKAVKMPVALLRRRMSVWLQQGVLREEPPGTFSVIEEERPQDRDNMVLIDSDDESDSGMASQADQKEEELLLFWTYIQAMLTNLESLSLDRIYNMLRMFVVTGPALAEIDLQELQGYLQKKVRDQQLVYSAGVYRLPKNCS
row,SMILES,IC50
1,"O=C(c1ccc(F)cc1)C1CCN(c2ccc([N+](=O)[O-])c3nonc23)CC1 [compound 142, (4-fluorophenyl)[1-(7-nitro-2,1,3-benzoxadiazol-4-yl)piperidin-4-yl]methanone]",1 to 20 µM
2,"O=[N+]([O-])c1ccc(N2CCN(c3cc(C(F)(F)F)ccn3)CC2)c2nonc12 [compound 90, 4-nitro-7-{4-[4-(trifluoromethyl)pyridin-2-yl]piperazin-1-yl}-2,1,3-benzoxadiazole]",1 to 20 µM
3,"N#CC1(c2ccccc2)CCN(c2ccc([N+](=O)[O-])c3nonc23)CC1 [compound 141, 1-(7-nitro-2,1,3-benzoxadiazol-4-yl)-4-phenylpiperidine-4-carbonitrile]",1 to 20 µM
4,"O=[N+]([O-])c1ccc(N2CCC(O)(c3ccc(Cl)cc3)CC2)c2nonc12 [compound 159, 4-(4-chlorophenyl)-1-(7-nitro-2,1,3-benzoxadiazol-4-yl)piperidin-4-ol]",1 to 20 µM
5,"O=[N+]([O-])c1ccc(Sc2cccc3cccnc23)c2nonc12 [compound 5, 8-[(7-Nitro-2,1,3-benzoxadiazol-4-yl)thio]quinoline]",1 to 20 µM
6,"Cc1ccc(N2CCN(c3ccc([N+](=O)[O-])c4nonc34)CC2)cc1C [compound 140, 4-[4-(3,4-dimethylphenyl)piperazin-1-yl]-7-nitro-2,1,3-benzoxadiazole]",1 to 20 µM
7,"CCOC(=O)c1cc(C#N)c(C)nc1N1CCN(c2ccc([N+](=O)[O-])c3nonc23)CC1 [compound 153, ethyl 5-cyano-6-methyl-2-[4-(7-nitro-2,1,3-benzoxadiazol-4-yl)piperazin-1-yl]nicotinate]",1 to 20 µM
8,"O=S(=O)(Oc1ccc(N2CCN(S(=O)(=O)c3ccc(Cl)c4nonc34)CC2)cc1)c1ccc(Cl)c2nonc12 [compound 171, 4-{4-[(7-chloro-2,1,3-benzoxadiazol-4-yl)sulfonyl]piperazin-1-yl}phenyl 7-chloro-2,1,3-benzoxadiazole-4-sulfonate]",1 to 20 µM
9,"O=S(=O)(Nc1cccc2nsnc12)c1ccc(Oc2ccccc2)cc1 [compound 94, N-2,1,3-benzothiadiazol-4-yl-4-phenoxybenzenesulfonamide]",1 to 20 µM
10,"N#Cc1ccc(N2CCN(c3ccc([N+](=O)[O-])c4nonc34)CC2)nc1 [compound 121, 6-[4-(7-nitro-2,1,3-benzoxadiazol-4-yl)piperazin-1-yl]nicotinonitrile]",1 to 20 µM
11,"O=[N+]([O-])c1ccc(N2CCN(c3ncccc3C(F)(F)F)CC2)c2nonc12 [compound 148, 4-nitro-7-{4-[3-(trifluoromethyl)pyridin-2-yl]piperazin-1-yl}-2,1,3-benzoxadiazole]",1 to 20 µM
12,"O=[N+]([O-])c1ccc(N2CCN(c3ccc(O)cc3)CC2)c2nonc12 [compound 146, 4-[4-(7-nitro-2,1,3-benzoxadiazol-4-yl)piperazin-1-yl]phenol]",1 to 20 µM
13,"O=S(=O)(c1c(N2CCN(c3ccc(Cl)c(C(F)(F)F)c3)CC2)ccc2nonc12)N1CCN(c2ccc(Cl)c(C(F)(F)F)c2)CC1 [compound 181, 5-{4-[4-chloro-3-(trifluoromethyl)phenyl]piperazin-1-yl}-4-({4-[4-chloro-3-(trifluoromethyl)phenyl]piperazin-1-yl}sulfonyl)-2,1,3-benzoxadiazole]",1 to 20 µM
14,"O=[N+]([O-])c1ccc(N2CCN(c3ncccn3)CC2)c2nonc12 [compound 109, 4-nitro-7-(1,3-(pyrimidin-2-yl)piperazin-1-yl)-2,1,3-benzoxadiazole]",1 to 20 µM
15,"Cc1cc(C)cc(-c2ccc([N+](=O)[O-])c3nonc23)c1 [compound 286, 4-(3,5-Dimethylphenyl)-7-nitro-2,1,3-benzoxadiazole]",1 to 20 µM
16,"O=[N+]([O-])c1ccc(Oc2c(Cl)cc(S(=O)(=O)Nc3cccc4nsnc34)cc2Cl)c(Cl)c1 [compound 73, N-2,1,3-benzothiadiazol-4-yl-3,5-dichloro-4-(2-chloro-4-nitrophenoxy)benzenesulfonamide]",1 to 20 µM
17,"CC1CC(C)CN(c2ccc([N+](=O)[O-])c3nonc23)C1 (stereo not shown) [compound 144, 4-(3,5-dimethylpiperidin-1-yl)-7-nitro-2,1,3-benzoxadiazole]",1 to 20 µM
18,"O=[N+]([O-])c1ccc(N2CCN(c3ncc(C(F)(F)F)cc3Cl)CC2)c2nonc12 [compound 315, 4-{4-[3-chloro-5-(trifluoromethyl)pyrindin-2-yl]piperazin-1-yl}-7-nitro-2,1,3-benzoxadiazole]",< 1 µM
19,"Cc1ccc(Cl)cc1N1CCN(c2ccc([N+](=O)[O-])c3nonc23)CC1 [compound 145, 4-[4-(5-chloro-2-methylphenyl)piperazin-1-yl]-7-nitro-2,1,3-benzoxadiazole]",1 to 20 µM

# Further lines, results first:
row,IC50,SMILES
1,1 to 20 µM,"O=S(=O)(Nc1cccc2nonc12)c1ccc(Oc2ncc(C(F)(F)F)cc2Cl)cc1 [compound 78, N-2,1,3-benzoxadiazol-4-yl-4-{[3-chloro-5-(trifluoromethyl)pyridin-2-yl]oxy}benzenesulfonamide]"
2,1 to 20 µM,"O=[N+]([O-])c1ccc(Oc2ccc(S(=O)(=O)Nc3cccc4nonc34)cc2Cl)c(C(F)(F)F)c1 [compound 114, N-2,1,3-benzoxadiazol-4-yl-3-chloro-4-[4-nitro-2-(trifluoromethyl)phenoxy]benzenesulfonamide]"
3,1 to 20 µM,"COc1cccc(-c2ccc([N+](=O)[O-])c3nonc23)c1F [compound 314, 4-(2-Fluoro-3-methoxyphenyl)-7-nitro-2,1,3-benzoxadiazole]"

# System: ICAM-1 expression in A549 cells
# Test: ICAM assay (IL-1 induced ICAM-1/CD54 expression in A549 cells)
# Type: cell-based, human
# Settings: Homo sapiens, A549, ICAM assay
# Procedure, shortened: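 Luminescent immunostaining (anti-CD54, then anti-mouse IgG, 1 h) quantifies ICAM-1 on A549 cells induced 4 h at 37° C by IL-1 (4 μl of 25 ng/ml added). Compound is added 1 h before the cytokine to cells plated overnight at 10,000 per well.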
row,SMILES,IC50
1,"O=[N+]([O-])c1ccc(SCCO)c2nonc12 [compound 150, 2-[(7-nitro-2,1,3-benzoxadiazol-4-yl)thio]ethanol]",≥ 20 µM
2,"O=S(=O)(c1c(Cl)ccc2nonc12)N1CCN(c2cnccn2)CC1 [compound 200, 5-chloro-4-[(4-pyrazin-2-ylpiperazin-1-yl)sulfonyl]-2,1,3-benzoxadiazole]",≥ 20 µM
3,"CC(=O)N1CCN(S(=O)(=O)c2c(Sc3cccc4cccnc34)ccc3nonc23)CC1 [compound 214, 8-({4-[(4-acetylpiperazin-1-yl)sulfonyl]-2,1,3-benzoxadiazol-5-yl}thio)quinoline]",≥ 20 µM
4,"CC(=O)N1CCN(S(=O)(=O)c2c(Cl)ccc3nonc23)CC1 [compound 201, 4-[(4-acetylpiperazin-1-yl)sulfonyl]-5-chloro-2,1,3-benzoxadiazole]",≥ 20 µM
5,"O=S(=O)(c1ccc(Sc2ccc(O)cc2)c2nonc12)N1CCC(Oc2ncccn2)CC1 [compound 226, 4-[(7-{[4-(pyrimidin-2-yloxy)piperidin-1-yl]sulfonyl}-2,1,3-benzaxadiazol-4-yl)thio]phenol]",≥ 20 µM

# Results, then the molecule that gave them:
row,IC50,SMILES
1,≥ 20 µM,"O=S(=O)(Nc1ccc2cn[nH]c2c1)c1ccc(Cl)c2nonc12 [compound 220, 7-chloro-N-1 H-indazol-6-yl-2,1,3-benzoxadiazole-4-sulfonamide]"
2,≥ 20 µM,"O=S(=O)(c1ccc(Cl)c2nonc12)N1CCN(c2ncccn2)CC1 [compound 184, 4-chloro-7-[(4-pyrimidin-2-ylpiperazin-1-yl)sulfonyl]-2,1,3-benzoxadiazole]"
3,≥ 20 µM,"N#Cc1ccccc1N1CCN(S(=O)(=O)c2c(Cl)ccc3nonc23)CC1 [compound 180, 2-{4-[(5-chloro-2,1,3-benzoxadiazol-4-yl)sulfonyl]piperazin-1-yl}benzonitrile]"
4,≥ 20 µM,"COC(=O)c1ccc(NS(=O)(=O)c2c(Cl)ccc3nonc23)cc1 [compound 178, methyl 4-{[(5-chloro-2,1,3-benzoxadiazol-4-yl)sulfonyl]amino}benzoate]"
5,≥ 20 µM,"N#Cc1ccc(N2CCN(S(=O)(=O)c3c(Cl)ccc4nonc34)CC2)nc1 [compound 209, 6-{4-[(5-chloro-2,1,3-benzoxadiazol-4-yl)sulfonyl]piperazin-1-yl}nicotinonitrile]"
6,≥ 20 µM,"CC1CC(C)CN(S(=O)(=O)c2ccc(Cl)c3nonc23)C1 (stereo not shown) [compound 192, 4-chloro-7-[(3,5-dimethylpiperidin-1-yl)sulfonyl]-2,1,3-benzoxadiazole]"
7,≥ 20 µM,"O=S(=O)(Nc1ccc(F)c(F)c1)c1ccc(Cl)c2nonc12 [compound 262, 7-chloro-N-(3,4-difluorophenyl)-2,1,3-benzoxadiazole-4-sulfonamide]"
8,≥ 20 µM,"N#Cc1cccnc1N1CCN(S(=O)(=O)c2ccc(Cl)c3nonc23)CC1 [compound 170, 2-{4-[(7-chloro-2,1,3-benzoxadiazol-4-yl)sulfonyl]piperazin-1-yl}nicotinomtrile]"
9,≥ 20 µM,"O=S(=O)(Nc1cccc(F)c1)c1ccc(Cl)c2nonc12 [compound 263, 7-chloro-N-(3-fluorophenyl)-2,1,3-benzoxadiazole-4-sulfonamide]"
10,≥ 20 µM,"COC(=O)c1ccc(NS(=O)(=O)c2ccc(F)c3nonc23)cc1 [compound 167, methyl 4-{[(7-fluoro-2,1,3-benzoxadiazol-4-yl)sulfonyl]amino}benzoate]"
11,≥ 20 µM,"O=S(=O)(c1ccc(Cl)c2nonc12)N1CCN(c2ccccc2)CC1 [compound 186, 4-chloro-7-[(4-phenylpiperazin-1-yl)sulfonyl]-2,1,3-benzoxadiazole]"
12,≥ 20 µM,"Cc1cccc(N2CCN(S(=O)(=O)c3c(Cl)ccc4nonc34)CC2)n1 [compound 202, 5-chloro-4-{[4-(6-methylpyridin-2-yl)piperazin-1-yl]sulfonyl}-2,1,3-benzoxadiazole]"
13,≥ 20 µM,"O=c1[nH]c2ccccc2n1C1CCN(S(=O)(=O)c2ccc(Cl)c3nonc23)CC1 [compound 188, 1-{1-[(7-chloro-2,1,3-benzoxadiazol-4-yl)sulfonyl]piperidin-4-yl}-1,3-dihydro-2H-benzimidazol-2-one]"
